Source: publication PMC6718478, “A Comprehensive Antimicrobial Activity Evaluation of the Recombinant Microcin J25 Against the Foodborne Pathogens Salmonella and E. coli O157:H7 by Using a Matrix of Conditions” (Frontiers in Microbiology, 2019)
Positions of bridges follow the written chain, without caps; N, C: chain ends. Residues, ends and D or L forms follow the SMILES beside them.

Tested on: S. Pullorum
Assay: SEM of cell membrane morphology
Assay type: cell-based, Salmonella Pullorum
Details: 1 or 4 × MIC for 1 h at 37°C; ~2 × 10^6 cells
Procedure: To assess the alteration of S. Pullorum cell membrane morphology and ultrastructure, SEM and TEM were performed as described previously, with minor modifications ([Wang et al., 2017]; [Meng et al., 2019]). For SEM sample preparation, approximately 2 × 10^6 S. Pullorum cells were incubated at 37°C for 1 h with the recombinant MccJ25 at 1× and 4 × MIC levels. The control was performed without the recombinant MccJ25. After incubation, the cells were harvested, mixed and centrifuged at 8,000 × g for 3 min. The bacterial pellets were washed three times in PBS and centrifuged at 3,000 × g for 10 min. The bacterial cells were resuspended in 500 μL of PBS and supplemented with 2.5% fresh glutaraldehyde at 4°C overnight. Thereafter, the bacterial pellets were postfixed in 1% osmium tetroxide, dehydrated, and coated with gold-palladium. They were observed by SEM (EVO MA10 XVP, Carl Zeiss).

CC[C@H](C)[C@H](NC(=O)CNC(=O)[C@@H](NC(=O)[C@H](Cc1ccccc1)NC(=O)[C@H](Cc1ccc(O)cc1)NC(=O)[C@@H]1CCC(=O)NCC(=O)NCC(=O)N[C@@H](C)C(=O)NCC(=O)N[C@@H](Cc2c[nH]cn2)C(=O)N[C@@H](C(C)C)C(=O)N2CCC[C@H]2C(=O)N1)C(C)C)C(=O)NCC(=O)N[C@H](C(=O)N1CCC[C@H]1C(=O)N[C@H](C(=O)N[C@@H](CO)C(=O)N[C@@H](Cc1ccccc1)C(=O)N[C@@H](Cc1ccc(O)cc1)C(=O)NCC(=O)O)[C@@H](C)CC)[C@@H](C)O [recombinant MccJ25, microcin J25] (GGAGHVPEYFVGIGTPISFYG-OH; lactam N-8 (inferred); C-terminus assumed)
cell membrane morphology by SEM: minimal membrane roughening, enlargement, and some filiferous adhesions in a small amount of cells
